One may read the IC50 as the concentration needed to halve the response being measured.

One assay has as its system NCI-H292 cells. Kind of assay: Cytotoxicity of metabolites, MTT assay, NCI-H292. The assay is classed as cell-based, human. How it is done:
NCI-H292: human mucoepidermoid lung carcinoma cells, ATCC-CRL-1848, standard medium: RPMI 1640 (Biochrom; #FG1215, stab. glutamine)+10% FCS (Biochrom; #S0415), TWEAKR-positive, EGFR-positive.
The cells were cultivated according to the standard method using the growth media listed under C-1. The test is carried out by detaching the cells with a solution of Accutase in PBS (Biochrom AG #L2143), pelleting, resuspending in culture medium, counting and sowing into a 96-well culture plate with white bottom (Costar #3610) (NCI H292: 2500 cells/well, KPL-4: 1200 cells/well, LoVo: 1000 cells/well in a total volume of 100 μl). The cells were then incubated in an incubator at 37° C. and 5% carbon dioxide. After 48 h, the medium was replaced. The metabolites in 10 μl of culture medium in concentrations from 10^−5M to 10^−13M were then pipetted to the cells (in triplicate), and the assay was then incubated in an incubator at 37° C. and 5% carbon dioxide. […] To this end, the MTT reagent was incubated with the cells for 4 h, followed by lysis of the cells overnight by addition of the detergent. The dye formed was detected at 570 nm (Infinite M1000 pro, Tecan). The measured data were used to calculate the IC50 of the growth inhibition using the DRC (dose response curve). […]
(In general: Tetrazolium assays rely on reduction of a dye to a coloured formazan, in cell work by metabolically active cells.)

A further assay addresses T1, TWEAKR (Homo sapiens, UniProt Q9NP84).
T1 construct: endogenous in cells; host or cells: HT29 (also WiDr, A253, NCI-H322, 786-O)
T1 sequence (Q9NP84 28-129): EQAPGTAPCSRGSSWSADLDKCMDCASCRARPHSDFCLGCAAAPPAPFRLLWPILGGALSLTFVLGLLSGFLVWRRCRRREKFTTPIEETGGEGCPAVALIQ
Kind of assay: Agonistic activity of anti-TWEAKR antibodies. The assay is classed as cell-based. An excerpt: In this regard, one embodiment of the invention is the provision of antibodies or antigen-binding antibody fragments thereof binding specifically to a TWEAKR at a new epitope, distinguished by selective binding to aspartate (D) at position 47 (D47) of TWEAKR (SEQ ID NO: 169; see also FIG. 1). The identified dependencies of certain TWEAKR amino acids for antibody interaction correlate with the agonistic activity determined for these antibodies. […] Thus, TWEAK binds to a similar, but distinguishable binding site (FIG. 7). Accordingly, the antibodies of the present invention, which show strong agonistic activity, bind to a new epitope (as a function of D47) which is associated with very strong agonistic activity.

Regarding `CC(C)(C)[C@H](c1cc(-c2cc(F)ccc2F)cn1Cc1ccccc1)N(CC[C@H](N)C(=O)NCCNC(=O)CNC(=O)CC(SC[C@H](N)C(=O)O)C(=O)O)C(=O)CO` (stereo partly drawn) [Example M2-1, 4-[(2-{[2-({(2S)-2-Amino-4-[{(1R)-1-[1-benzyl-4-(2,5-difluorophenyl)-1H-pyrrol-2-yl]-2,2-dimethylpropyl}(glycoloyl)amino]butanoyl}amino)ethyl]amino}-2-oxoethyl)amino]-2-{[(2R)-2-amino-2-carboxyethyl]sulphanyl}-4-oxobutanoic acid/trifluoroacetic acid (1:1)], the IC50 with NCI-H292 cells (96 h incubation) was found to be 265 nM.

Take `CC(C)(C)[C@H](c1cc(-c2cc(F)ccc2F)cn1Cc1ccccc1)N(CCCN)C(=O)CO` [Example M9, N-(3-Aminopropyl)-N-{(1R)-1-[1-benzyl-4-(2,5-difluorophenyl)-1H-pyrrol-2-yl]-2,2-dimethylpropyl}-2-hydroxyacetamide]: the half-inhibitory concentration (IC50) with NCI-H292 cells (Homo sapiens, NCI-H292, 96 h incubation) was 0.924 nM.

B1: PLD-192: "PLD-192 shows moderate agonistic activity and binds as a function of R56 to the cysteine-rich domain, but opposite of the TWEAK ligand site" (antibody, chains of the INN, looked up, V domains shown)
VH: EVQLVESGGGLVQPGGSLRLSCAASGFTFSSYWMSWVRQAPGKGLEWVAEIRLKSDNYATHYAESVKGRFTISRDDSKNSLYLQMNSLRAEDTAVYYCTGYYADAMDYWGQGTLVTVSS
VL: DIQMTQSPSSLSASVGDRVTITCRASQSVSTSSYSYMHWYQQKPGKAPKLLIKYASNLESGVPSRFSGSGSGTDFTLTISSLQPEDFATYYCQHSWEIPYTFGGGTKVEIK
On to B1, for which the Agonistic activity entry in the assay with TWEAKR was “moderate agonistic activity”.

The record behind these values is patent US10485880B2, “Antibody-drug conjugates (ADCs) of KSP inhibitors with aglycosylated anti-TWEAKR antibodies” (Bayer Pharma Aktiengesellschaft, priority 2015, dated 2019).
